Target: T1, human DGAT1 (Homo sapiens, UniProt O75907)
T1 construct: made in house; host or cells: Sf9 insect cells (recombinant baculovirus); membrane fraction
T1 sequence (O75907 1-488): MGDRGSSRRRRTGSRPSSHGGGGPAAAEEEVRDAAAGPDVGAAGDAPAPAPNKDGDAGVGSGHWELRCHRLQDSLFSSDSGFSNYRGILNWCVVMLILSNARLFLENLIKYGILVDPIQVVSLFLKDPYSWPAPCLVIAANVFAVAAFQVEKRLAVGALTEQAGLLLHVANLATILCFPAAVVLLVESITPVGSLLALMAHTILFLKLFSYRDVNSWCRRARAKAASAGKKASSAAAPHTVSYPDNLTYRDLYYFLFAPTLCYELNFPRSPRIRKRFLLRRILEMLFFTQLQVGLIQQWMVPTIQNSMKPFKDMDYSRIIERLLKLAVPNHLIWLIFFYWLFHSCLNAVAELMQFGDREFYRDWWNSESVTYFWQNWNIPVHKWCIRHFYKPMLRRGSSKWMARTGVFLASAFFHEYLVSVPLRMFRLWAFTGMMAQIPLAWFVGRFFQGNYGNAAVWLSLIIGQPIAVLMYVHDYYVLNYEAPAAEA
Assay: Human enzyme assay, further developed assay (14C oleoyl CoA, 96 well plate)
Format: biochemical
Details: human DGAT1 expressed in insect cell (sf9) membranes
How it was run: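 Enzyme from Sf9 membranes expressing baculoviral human DGAT1, 25 μg/ml final, with 5 mM MgCl2 and 100 μM 1,2-dioleoyl-sn-glycerol. Compound at 0.00003–10 μM final; reaction started with 30 μM [14C]oleoyl-CoA, 30 min at room temperature. Radiolabelled triolein extracted into heptane and counted by scintillation.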

| Compound | IC50 [nM] |
| --- | --- |
| O=C(Nc1ccc(O[C@H]2CC[C@H](C(=O)O)CC2)nc1)c1nnc(Nc2ccc(F)c(Cl)c2)o1 [Example 24, (1r,4r)-4-(5-(5-(3-chloro-4-fluoro-phenylamino)-1,3,4-oxadiazole-2-carboxamido)pyridin-2-yloxy)cyclo-hexane-carboxylic acid] | 20 |
| O=C(Nc1ccc(O[C@@H]2CC[C@@H](C(=O)O)C2)nc1)c1nnc(Nc2ccc(F)c(F)c2)o1 [Example 49, (1R,3R)-3-(5-(5-(3,4-Difluorophenylamino)-1,3,4-oxadiazole-2-carboxamido)pyridin-2-yloxy)cyclopentanecarboxylic acid] | 18 |
| O=C(Nc1ccc(O[C@H]2CC[C@@H](C(=O)O)CC2)nc1)c1nnc(Nc2ccc(OC(F)(F)F)cc2)o1 [Example 11, (1s,4s)-4-(5-(5-(4-(trifluoromethoxy)phenylamino)-1,3,4-oxadiazole-2-carboxamido)pyridin-2-yloxy)cyclohexanecarboxylic acid] | 7.2 |
| CC(C)c1ccc(Nc2nnc(C(=O)Nc3ccc(O[C@H]4CC[C@@H](C(=O)O)CC4)nc3)o2)cc1 [Example 10, (1s,4s)-4-(5-(5-(4-isopropylphenylamino)-1,3,4-oxadiazole-2-carboxamido)pyridin-2-yloxy)cyclohexanecarboxylic acid] | 19 |
| O=C(Nc1cnc(O[C@H]2CC[C@@H](C(=O)O)CC2)c(F)c1)c1nnc(Nc2ccc(F)c(Cl)c2)o1 [Example 61, (1s,4s)-4-(5-(5-(3-Chloro-4-fluorophenylamino)-1,3,4-oxadiazole-2-carboxamido)-3-fluoropyridin-2-yloxy)cyclohexanecarboxylic acid] | 19 |
| O=C(O)C[C@H]1CC[C@H](Oc2ccc(NC(=O)c3nnc(Nc4ccc(F)c(F)c4)o3)cn2)CC1 [Example 37, 2-((1r,4r)-4-(5-(5-(3,4-difluorophenylamino)-1,3,4-oxadiazole-2-carboxamido)pyridin-2-yloxy)cyclohexyl)acetic acid] | 18 |

From patent publication US20110092547A1 (priority 2007, published 2011)
